Data taken from patent publication US10898481B2 (priority 2018, dated 2021).

Tests used:
hA2a/CHO = hA2a/CHO (Homo sapiens (Human), UniProt P29274); assay: cAMP inhibition assay in hA2a/CHO cells, 10 μM adenosine; type: cell-based; settings: read-out: cAMP & FLIPR IC50 (nM) hA2a;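 also: compounds added to cells 30 min ahead of adenosine, then a further 30 min at 37 °C with adenosine before cAMP detection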
Experimental: hA2a/CHO, hA2b/CHO, hA3/CHO and mA2a/CHO (Genscript) were plated at 5×10^3 cells/well into 384-well polystyrene plates at the day of experiment. Compounds were pre-incubated with cells for 30 min at 37° C., 5% CO2. Then 10 μM adenosine was added to the cells and incubated for 30 min at 37° C., 5% CO2. Detection reagent (CISBIO) was added and the plates were incubated for 60 min at room temperature. The signal was captured by Envision.

[1] = biological target: hADORA1/CHO (hA1 expressing) cells (Homo sapiens (Human), UniProt P30542); assay: cell-based; settings: FLIPR inhibition, 10 μM adenosine, read-out: cAMP & FLIPR IC50 (nM) hA1
hADORA1/CHO (hA1 expressing) cells, sequence (P30542 whole entry): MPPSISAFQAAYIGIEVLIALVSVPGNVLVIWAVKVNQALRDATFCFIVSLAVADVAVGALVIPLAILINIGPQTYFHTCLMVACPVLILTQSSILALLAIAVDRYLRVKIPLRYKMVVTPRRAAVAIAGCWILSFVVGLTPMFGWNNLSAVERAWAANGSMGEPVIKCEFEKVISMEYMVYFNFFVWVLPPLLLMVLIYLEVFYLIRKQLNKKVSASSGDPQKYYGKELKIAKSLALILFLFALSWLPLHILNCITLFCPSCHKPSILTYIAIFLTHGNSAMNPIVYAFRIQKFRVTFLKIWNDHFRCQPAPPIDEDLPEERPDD
Experimental: hADORA1/CHO (hA1 expressing) cells (Genscript) were plated at 1×10^4 cells/well into 384-well polystyrene plates one day before starting the experiment. On the day of experiment, the supernatant was discard and replaced with 40 μL of dye (FLIPR calcium 5 Assay Kit) per well and the plates were incubated for 60 mins at 37° C. plus 5% CO2. Then testing compounds were added at different concentrations for FLIPR™ inhibition assay. After a 400s incubation with compound, 10 μM adenosine was added into the cells, and the signal was captured by FLIPR.

hA2a/CHO, sequence (P29274 whole entry): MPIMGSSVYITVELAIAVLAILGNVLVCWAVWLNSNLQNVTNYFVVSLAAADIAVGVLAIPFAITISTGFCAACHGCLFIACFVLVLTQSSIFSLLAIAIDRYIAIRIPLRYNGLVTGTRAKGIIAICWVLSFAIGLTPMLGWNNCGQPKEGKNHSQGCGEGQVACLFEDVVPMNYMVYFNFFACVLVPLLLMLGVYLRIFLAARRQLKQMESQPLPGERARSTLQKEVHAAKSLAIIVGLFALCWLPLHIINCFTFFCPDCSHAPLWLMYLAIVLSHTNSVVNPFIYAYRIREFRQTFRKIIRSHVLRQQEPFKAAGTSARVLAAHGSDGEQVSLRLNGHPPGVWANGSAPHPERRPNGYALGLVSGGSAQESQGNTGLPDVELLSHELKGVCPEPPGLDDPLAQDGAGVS

Cc1cnc2ccc(-c3nc(C(=O)NCCN(C)C4CCOC4)c(N)nc3-c3ncco3)cn12 (racemic) [Cmpd. 233, rac-3-amino-N-(2-(methyl(tetrahydrofuran-3-yl)amino)ethyl)-6-(3-methylimidazo[1,2-a]pyridin-6-yl)-5-(oxazol-2-yl)pyrazine-2-carboxamide]
IC50 (hA2a/CHO): 38 nM | IC50 [1]: 1910 nM

Cc1cnc2ccc(-c3nc(C(=O)NCc4cccc(N5CCC(N(C)C)C5)n4)c(N)nc3-c3ncco3)cn12 (single isomer, unassigned) [Cmpd. 232, 3-amino-N-((6-(3-(dimethylamino)pyrrolidin-1-yl)pyridin-2-yl)methyl)-6-(3-methylimidazo[1,2-a]pyridin-6-yl)-5-(oxazol-2-yl)pyrazine-2-carboxamide]
IC50 (hA2a/CHO): 0.5 nM | IC50 [1]: 1500 nM

Cc1cnc2ccc(-c3nc(C(=O)NCc4cccc(N5CCC(N(C)C)C5)n4)c(N)nc3-c3ncco3)cn12 (single isomer, unassigned) [Cmpd. 235, 3-amino-N-((6-(3-(dimethylamino)pyrrolidin-1-yl)pyridin-2-yl)methyl)-6-(3-methylimidazo[1,2-a]pyridin-6-yl)-5-(oxazol-2-yl)pyrazine-2-carboxamide]
IC50 (hA2a/CHO): 0.8 nM | IC50 [1]: 5180 nM

Cc1cnc2ccc(-c3nc(C(=O)NCC(C4CC4)N(C)C)c(N)nc3-c3ncco3)cn12 (single isomer, unassigned; isomer 1) [Example 253, 3-amino-N-(2-cyclopropyl-2-(dimethylamino)ethyl)-6-(3-methylimidazo[1,2-a]pyridin-6-yl)-5-(oxazol-2-yl) pyrazine-2-carboxamide (isomer 1)]
IC50 (hA2a/CHO): 12 nM | IC50 [1]: 8170 nM

Cc1cnc2ccc(-c3nc(C(=O)NCC4CC(C)(C)O4)c(N)nc3-c3ncco3)cn12 (single isomer, unassigned; isomer 1) [Example 260, 3-amino-N-((4,4-dimethyloxetan-2-yl)methyl)-6-(3-methylimidazo[1,2-a]pyridin-6-yl)-5-(oxazol-2-yl)pyrazine-2-carboxamide (isomer 1)]
IC50 (hA2a/CHO): 5.9 nM | IC50 [1]: 30 nM

Cc1cnc2ccc(-c3nc(C(=O)NCC4CCCN(C)C4=O)c(N)nc3-c3ncco3)cn12 (single isomer, unassigned; isomer 1) [Example 263, 3-amino-N-((1-methyl-2-oxopiperidin-3-yl)methyl)-6-(3-methylimidazo[1,2-a]pyridin-6-yl)-5-(oxazol-2-yl) pyrazine-2-carboxamide (isomer 1)]
IC50 (hA2a/CHO): 0.4 nM | IC50 [1]: 103 nM

Cc1cnc2ccc(-c3nc(C(=O)NC(C)C4CCCO4)c(N)nc3-c3ncco3)cn12 (single isomer, unassigned; isomer 1) [Example 266, 3-amino-6-(3-methylimidazo[1,2-a]pyridin-6-yl)-5-(oxazol-2-yl)-N-(1-(tetrahydrofuran-2-yl)ethyl)pyrazine-2-carboxamide (isomer 1)]
IC50 (hA2a/CHO): 7.6 nM | IC50 [1]: > 10000 nM

Cc1cnc2ccc(-c3nc(C(=O)NCC4CCN(C)C4=O)c(N)nc3-c3ccc(F)cc3)cn12 (single isomer, unassigned; isomer 1) [Example 267, 3-amino-5-(4-fluorophenyl)-N-((1-methyl-2-oxopyrrolidin-3-yl)methyl)-6-(3-methylimidazo[1,2-a]pyridin-6-yl) pyrazine-2-carboxamide (isomer 1)]
IC50 (hA2a/CHO): 0.9 nM | IC50 [1]: 2.8 nM

NCc1cnc2ccc(-c3nc(C(=O)NCc4ncccc4F)c(N)nc3-c3ncco3)cn12 [Cmpd. 198, 3-amino-6-(3-(aminomethyl)imidazo[1,2-a]pyridin-6-yl)-N-((3-fluoropyridin-2-yl)methyl)-5-(oxazol-2-yl)pyrazine-2-carboxamide]
IC50 [1]: > 10000 nM

Cc1cnc2ccc(-c3nc(C(=O)NCc4ncccc4F)c(N)nc3N3CCOCC3)cn12 [Cmpd. 223, 3-amino-N-[(3-fluoropyridin-2-yl)methyl]-6-[3-methylimidazo[1,2-a]pyridin-6-yl]-5-(morpholin-4-yl)pyrazine-2-carboxamide]
IC50 [1]: > 10000 nM

Cc1cnc2ccc(-c3nc(CNC(=O)[C@H]4CCCN4C)c(N)nc3-c3cc(F)cc(F)c3)cn12 [Example 291, (2R)—N-[[3-amino-5-(3,5-difluorophenyl)-6-[3-methylimidazo[1,2-a]pyridin-6-yl]pyrazin-2-yl]methyl]-1-methylpyrrolidine-2-carboxamide]
IC50 (hA2a/CHO): 1.1 nM

Cc1cnc2ccc(-c3nc(C(=O)N[C@@H](C)Cn4ccnn4)c(N)nc3-c3ncco3)cn12 [Example 296, (S)-N-(1-(lH-1,2,3-triazol-1-yl)propan-2-yl)-3-amino-6-(3-methylimidazo[1,2-a]pyridin-6-yl)-5-(oxazol-2-yl) pyrazine-2-carboxamide]
IC50 (hA2a/CHO): 0.9 nM

Cc1cnc2ccc(-c3nc(C(=O)N[C@@H](C)Cn4nccn4)c(N)nc3-c3ncco3)cn12 [Example 297, 3-amino-6-[3-methylimidazo[1,2-a]pyridin-6-yl]-5-(1,3-oxazol-2-yl)-N-[(2S)-1-(2H-1,2,3-triazol-2-yl)propan-2-yl]pyrazine-2-carboxamide]
IC50 (hA2a/CHO): 0.2 nM

Cc1cnc2ccc(-c3nc(C(=O)N[C@H](C)Cn4nccn4)c(N)nc3-c3ncco3)cn12 [Example 298, 3-amino-6-[3-methylimidazo[1,2-a]pyridin-6-yl]-5-(1,3-oxazol-2-yl)-N-[(2R)-1-(2H-1,2,3-triazol-2-yl)propan-2-yl]pyrazine-2-carboxamide]
IC50 (hA2a/CHO): 47 nM

COCCCNC(=O)c1nc(-c2ccc3ncc(C)n3c2)c(-n2nccn2)nc1N [Example 299, 3-amino-N-(3-methoxypropyl)-6-(3-methylimidazo[1,2-a]pyridin-6-yl)-5-(2H-1,2,3-triazol-2-yl)pyrazine-2-carboxamide]
IC50 (hA2a/CHO): 4.9 nM

Cc1cnc2ccc(-c3nc(C(=O)NCc4ncccc4OCCO)c(N)nc3-c3ncco3)cn12 [Example 300, 3-amino-N-((3-(2-hydroxyethoxy)pyridin-2-yl)methyl)-6-(3-methylimidazo [1,2-a]pyridin-6-yl)-5-(oxazol-2-yl) pyrazine-2-carboxamide]
IC50 (hA2a/CHO): 0.8 nM

CNCCOc1cccnc1CNC(=O)c1nc(-c2ccc3ncc(C)n3c2)c(-c2ncco2)nc1N [Example 301, 3-amino-N-([3-[2-(methylamino)ethoxy]pyridin-2-yl]methyl)-6-[3-methylimidazo[1,2-a]pyridin-6-yl]-5-(1,3-oxazol-2-yl)pyrazine-2-carboxamide]
IC50 (hA2a/CHO): 3 nM

Cc1cnc2ccc(-c3nc(C(=O)NCc4cccc(N5CCC(N(C)C)CC5)n4)c(N)nc3-c3ncco3)cn12 [Example 302, 3-amino-N-((6-(4-(dimethylamino)piperidin-1-yl)pyridin-2-yl)methyl)-6-(3-methylimidazo[1,2-a]pyridin-6-yl)-5-(oxazol-2-yl)pyrazine-2-carboxamide]
IC50 (hA2a/CHO): 2.4 nM

CNC1CN(c2cccc(CNC(=O)c3nc(-c4ccc5ncc(C)n5c4)c(-c4ncco4)nc3N)n2)C1 [Example 303, 3-amino-N-((6-(3-(methylamino)azetidin-1-yl)pyridin-2-yl)methyl)-6-(3-methylimidazo[1,2-a]pyridin-6-yl)-5-(oxazol-2-yl)pyrazine-2-carboxamide]
IC50 (hA2a/CHO): 0.4 nM
